Measured values published in patent US10900927B2, “Graphene field effect transistors for detection of ions” (UNIVERSITY OF SOUTH CAROLINA, priority 2018, dated 2021).

Columns and labels:
[1] = K+ versus Na+; cited from earlier work
[2] = test system: Ca2+-activated non-selective cation (NSC) channels on the T84 cells; assay: K+ efflux of T84 cells activated with A23187, measured with the GISFET; type: cell-based, human; parameters: dose or concentration left out as unconfirmed; conditions: T84 cells in normal saline solution
Description: In Example 2, GISFETs as contemplated by the present invention were fabricated as described in Example 1 and were then used to measure the K^+ efflux of human colonic epithelial cells. FIG. 9 is a schematic illustrating the use of the graphene ion sensitive field effect transistor (GISFET) of the present invention to determine the K^+ efflux from cells.
Specifically, human colonic T84 epithelial cells were used to investigate performance of the GISFET of the present invention. The Ca^2+-activated non-selective cation (NSC) channels on the T84 cells were activated with Ca^2+ ionophore A23187 ([…]), and then the corresponding K^+ efflux was detected and quantified by measuring the extracellular K+ ion concentration.
First, and referring to FIG. 9, cells 150 were plated on 25 millimeter diameter graphene-coated glass coverslips 148 and placed underneath of a specially designed mold 146 in a well plate 144. […]
Referring now to FIG. 10, after about 2 minutes of stabilization of the GISFET 101 in the buffer solution 152 in the well plate 144, the A23187 activating chemical was added to the well plate 144, which caused a consistent increase in current for about 20 minutes thereafter. […] By calculating the K^+ concentration based on the calibration data, the K^+ concentration could then be determined to be about 50 uM. […]

CC(C)[C@@H]1NC(=O)[C@H](C)OC(=O)[C@@H](C(C)C)NC(=O)[C@@H](C(C)C)OC(=O)[C@H](C(C)C)NC(=O)[C@H](C)OC(=O)[C@@H](C(C)C)NC(=O)[C@@H](C(C)C)OC(=O)[C@H](C(C)C)NC(=O)[C@H](C)OC(=O)[C@@H](C(C)C)NC(=O)[C@@H](C(C)C)OC1=O [valinomycin]
selectivity to K+ ions over Na+ ions (weaker valinomycin-Na+ complex) [1]: 10,000 fold

CNc1ccc2oc(C[C@H]3O[C@@]4(CC[C@H]3C)O[C@H]([C@H](C)C(=O)c3ccc[nH]3)[C@H](C)C[C@H]4C)nc2c1C(=O)O [A23187]
duration of consistent increase in GISFET current after addition [2]: about 20 minutes
extracellular K+ concentration from K+ efflux after activation ([2]; calculated from GISFET calibration data): about 50 uM
